How the values were obtained:
BaF3-NPM-ALK = assay: Cell growth (Cell Titer-Glo viability), BaF3-NPM-ALK; type: cell-based; settings: Mus musculus; BaF3-NPM-ALK (stably expressing ALK kinase), 72 hrs
NCI-H1975 = assay: Growth of cancer cells (Cell Titer-Glo viability), NCI-H1975; type: cell-based; settings: Homo sapiens; NCI-H1975 (EGFR L858R/T790M double mutant), 72 hrs
How it was run: (§1)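 Cells are counted as viable by CellTiter-Glo chemiluminescence. Murine BaF3 lines depend on a stably transfected TEL-fused kinase after IL-3 withdrawal, and the NSCLC lines express mutant EGFR.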

BaF3-TEL-ALK = assay: Cell growth (Cell Titer-Glo viability), BaF3-TEL-ALK; type: cell-based; settings: Mus musculus; BaF3-TEL-ALK (stably expressing ALK kinase), 72 hrs
How it was run: (§2)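 Proliferation assay: IL-3-independent BaF3 lines stably expressing TEL-fused human kinase (retroviral MSCV-Puro), plus EGFR-mutant NSCLC lines (HCC827 del19, NCI-H3255 L858R). Read-out: CellTiter-Glo luminescence of viable cells.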

BaF3 = assay: Cell growth (Cell Titer-Glo viability), BaF3; type: cell-based; settings: BaF3 mouse primary B cell, 72 hrs
NCI-H2122 = assay: Growth of cancer cells (Cell Titer-Glo viability), NCI-H2122; type: cell-based; settings: Homo sapiens; NCI-H2122 (wild-type EGFR), 72 hrs
A549 = assay: Growth of cancer cells (Cell Titer-Glo viability), A549; type: cell-based; settings: Homo sapiens; A549 (wild-type EGFR), 72 hrs
BaF3-ALK-F1174L = assay: Cell growth (Cell Titer-Glo viability), BaF3-ALK-F1174L; type: cell-based; settings: Mus musculus; BaF3-ALK-F1174L (mutant ALK F1174L kinase), 72 hrs
How it was run: as §2

BaF3-FL-EGFR-T790M-L858R = assay: Cell growth (Cell Titer-Glo viability), BaF3-FL-EGFR-T790M-L858R; type: cell-based; settings: Mus musculus; BaF3-FL-EGFR-T790M-L858R (EGFR T790M/L858R mutant kinase), 72 hrs
Description: By testing the effect of the novel kinase inhibitors on the proliferation of cancer cells, the selectivity of the compounds of the present disclosure in inhibiting the proliferation of cancer cells was further assessed. […]
(§3) The number of viable cells was determined quantitatively by a microplate reader using Cell Titer-Glo® (Promega, US) chemiluminescence cell viability assay kit.

CHO = assay: Cell growth (Cell Titer-Glo viability), CHO; type: cell-based, Chinese hamster; settings: Cricetulus griseus; CHO Chinese hamster ovary cell, 72 hrs; read-out: GI50
NCI-H2228 = assay: Growth of cancer cells (Cell Titer-Glo viability), NCI-H2228; type: cell-based; settings: Homo sapiens; NCI-H2228 (wild-type ALK), 72 hrs
A431 = assay: Growth of cancer cells (Cell Titer-Glo viability), A431; type: cell-based; settings: Homo sapiens, A-431; A431 (wild-type EGFR), 72 hrs; read-out: GI50
PC-9 = assay: Growth of cancer cells (Cell Titer-Glo viability), PC-9; type: cell-based; settings: Homo sapiens; PC-9 (EGFR delE746_A750 mutant), 72 hrs
How it was run: as §1

NCI-H3122 = assay: Growth of cancer cells (Cell Titer-Glo viability), NCI-H3122; type: cell-based; settings: Homo sapiens; NCI-H3122 (expressing ALK gene), 72 hrs; read-out: GI50
CHL = assay: Cell growth (Cell Titer-Glo viability), CHL; type: cell-based, Chinese hamster; settings: Cricetulus griseus; CHL Chinese hamster lung cell, 72 hrs; read-out: GI50
BaF3-TEL-INSR = assay: Cell growth (Cell Titer-Glo viability), BaF3-TEL-INSR; type: cell-based; settings: Mus musculus; BaF3-TEL-INSR (stably expressing INSR protein), 72 hrs
Excerpt: (§4) By testing the effect of the novel kinase inhibitors on the proliferation of cancer cells, the selectivity of the compounds of the present disclosure in inhibiting the proliferation of cancer cells was further assessed. In this example, human non-small cell lung cancer cell NCI-H1975 (expressing EGFR L858R/T790M double mutant gene), human skin squamous carcinoma cell A431 (expressing wild-type EGFR gene), non-small cell lung cancer NCI-H3255 (expressing EGFR L858R mutant gene), non-small cell lung cancer cell NCI-H3122 (expressing ALK gene), human non-small cell lung cancer cell A549 (expressing wild-type EGFR gene), human non-small cell lung cancer cell NCI-H2122 (expressing wild-type EGFR gene), human non-small cell lung cancer cell NCI-H460 (expressing wild-type EGFR gene), human non-small cell lung cancer cell PC-9 (expressing EGFR delE746_A750 mutant gene), Chinese hamster ovary cell CHO (Cricetulus griseus, hamster, Chinese, ovary), Chinese hamster lung cell CHL, human non-small cell lung cancer cell HCC827 (expressing mutant EGFR del19 gene), human lung adenocarcinoma cell HCC4006 (expressing mutant EGFR del19 gene), human non-small cell lung cancer cell NCI-H2228 (expressing wild-type ALK gene), and mouse primary B cell BaF3 were used, and the above cells were all purchased from ATCC (US). In addition, mouse BaF3-TEL-ALK (stably expressing ALK kinase), mouse BaF3-ALK-F1174L (stably expressing mutant ALK F1174L kinase), mouse BaF3-NPM-ALK (stably expressing ALK kinase), mouse BaF3-TEL-EGFR (stably expressing EGFR kinase), mouse BaF3-TEL-EGFR-T790M (stably expressing EGFR T790M mutant kinase), mouse BaF3-FL-EGFR-Del19 (stably expressing EGFR delE746_A750 mutant kinase), mouse BaF3-TEL-EGFR-L858R (stably expressing EGFR L858R mutant kinase), mouse BaF3-FL-EGFR-T790M-L858R (stably expressing EGFR T790M/L858R mutant kinase), mouse BaF3-TEL-INSR (stably expressing INSR protein), mouse BaF3-TEL-IGF1R (stably expressing IGF1R Protein), mouse BaF3-EML4-ALK (stably expressing EML4-ALK Protein), mouse BaF3-TEL-JAK3 (stably expressing JAK3 kinase protein), mouse BaF3-TEL-CSF1R (stably expressing CSF1R protein), and mouse BaF3-TEL-ALK-F1196M (stably expressing ALK F1196M mutant kinase) were also used in this example. The above cell lines were all established by our laboratory via the following process: kinase proteins or protein domain sequences of human ALK, ALK F1174L, EGFR, EGFR T790M, EGFR delE746_A750, EGFR L858, EGFR T790M/L858R, INSR, IGF1R, EML4-ALK, JAK3, CSF1R, ALK F1196M were amplified respectively by PCR, and were respectively inserted into MSCV-Puro vector (Clontech) with N-terminal TEL fragments and/or NPM fragments and/or TPR fragments; the resultants were stably transfected into mouse BaF3 cells by the means of retrovirus, and the IL-3 growth factors were removed, and eventually the ALK, ALK F1174L, EGFR, EGFR T790M, EGFR delE746_A750, EGFR L858, EGFR T790M/L858R, INSR, IGF1R, EML4-ALK, JAK3, CSF1R, ALK F1196M-transferred protein dependent cell lines were obtained.
as §3

BaF3-TEL-ALK-F1196M = assay: Cell growth (Cell Titer-Glo viability), BaF3-TEL-ALK-F1196M; type: cell-based; settings: Mus musculus; BaF3-TEL-ALK-F1196M (ALK F1196M mutant kinase), 72 hrs
Excerpt: By testing the effect of the novel kinase inhibitors on the proliferation of cancer cells, the selectivity of the compounds of the present disclosure in inhibiting the proliferation of cancer cells was further assessed. In this example, human non-small cell lung cancer cell NCI-H1975 (expressing EGFR L858R/T790M double mutant gene), human skin squamous carcinoma cell A431 (expressing wild-type EGFR gene), non-small cell lung cancer NCI-H3255 (expressing EGFR L858R mutant gene), non-small cell lung cancer cell NCI-H3122 (expressing ALK gene), human non-small cell lung cancer cell A549 (expressing wild-type EGFR gene), human non-small cell lung cancer cell NCI-H2122 (expressing wild-type EGFR gene), human non-small cell lung cancer cell NCI-H460 (expressing wild-type EGFR gene), human non-small cell lung cancer cell PC-9 (expressing EGFR delE746_A750 mutant gene), Chinese hamster ovary cell CHO (Cricetulus griseus, hamster, Chinese, ovary), Chinese hamster lung cell CHL, human non-small cell lung cancer cell HCC827 (expressing mutant EGFR del19 gene), human lung adenocarcinoma cell HCC4006 (expressing mutant EGFR del19 gene), human non-small cell lung cancer cell NCI-H2228 (expressing wild-type ALK gene), and mouse primary B cell BaF3 were used, and the above cells were all purchased from ATCC (US). […]
as §3

NCI-H3255 = assay: Growth of cancer cells (Cell Titer-Glo viability), NCI-H3255; type: cell-based; settings: Homo sapiens; NCI-H3255 (EGFR L858R mutant), 72 hrs
Excerpt: as §4, §3

HCC4006 = assay: Growth of cancer cells (Cell Titer-Glo viability), HCC4006; type: cell-based; settings: Homo sapiens; HCC4006 (mutant EGFR del19), 72 hrs
Excerpt: as §4, §3

BaF3-TEL-EGFR-T790M = assay: Cell growth (Cell Titer-Glo viability), BaF3-TEL-EGFR-T790M; type: cell-based; settings: Mus musculus; BaF3-TEL-EGFR-T790M (EGFR T790M mutant kinase), 72 hrs
How it was run: as §2

HCC827 = assay: Growth of cancer cells (Cell Titer-Glo viability), HCC827; type: cell-based; settings: Homo sapiens; HCC827 (mutant EGFR del19), 72 hrs
How it was run: as §2

BaF3-TEL-EGFR = assay: Cell growth (Cell Titer-Glo viability), BaF3-TEL-EGFR; type: cell-based; settings: Mus musculus; BaF3-TEL-EGFR (stably expressing EGFR kinase), 72 hrs
Excerpt: as §4, §3

NCI-H460 = assay: Growth of cancer cells (Cell Titer-Glo viability), NCI-H460; type: cell-based; settings: Homo sapiens; NCI-H460 (wild-type EGFR), 72 hrs
Excerpt: as §4, §3

[1] = system: EGFR protein (wild-type EGFR, A549); assay: Effect on signaling pathway in cells, A549; type: cell-based, human; settings: control at 1 μM, 4 h, compared with Compound 1 (little effect)
Excerpt: In four cell lines (all purchased from ATCC) including non-small cell lung cancer cell line A549 (expressing wild-type EGFR gene), non-small cell lung cancer cell line H1975 (expressing EGFR L858R/T790M double mutant gene), non-small cell lung cancer cell line H3255 (expressing EGFR L858R mutant gene) and non-small cell lung cancer cell line PC-9 (expressing EGFR delE746_A750 mutant gene), the effect of Compound 1 on EGFR or other protein kinases related to signaling pathways of EGFR such as Stat3, AKT, ErK, eIF4E, 4EBP1, P70S6K was assessed by assaying a number of cellular biochemical and functional endpoints. […] The effect of Compound 1 on phosphorylation of Stat3Y705, AKT T308, AKT 5473, Erk T202/204, EGFR Y1068, P70S6K Thr389, eIF4E Ser209, Erk T202/204, 4EBP1 (Thr37/46) in these cell lines was assayed (FIGS. 1a to 1d).

GI50 (BaF3-NPM-ALK) [nM] | GI50 (NCI-H1975) [nM] | GI50 (BaF3-TEL-ALK) [nM] | GI50 (BaF3) [nM] | GI50 (NCI-H2122) [nM] | GI50 (NCI-H2228) [nM] | GI50 (PC-9) [nM] | GI50 (NCI-H3122) [nM] | SMILES | other results
< 0.3 | 25 | < 3 | 450 | 190 | < 3 | 24 | < 0.3 | C=CC(=O)Nc1cc(Nc2ncc(Cl)c(Nc3ccccc3S(=O)(=O)C(C)C)n2)c(OC)cc1N1CCN(C(C)C)CC1 [Compound 11, N-(5-(5-chloro-4-(2-(isopropylsulfonyl)phenylamino)pyrimidin-2-ylamino)-2-(4-isopropylpiperazin-1-yl)-4-methoxyphenyl)acrylamide] | GI50 (A549): 210 nM; GI50 (BaF3-ALK-F1174L): 530 nM; GI50 (BaF3-FL-EGFR-T790M-L858R): 2 nM; GI50 (CHO): 1300 nM; GI50 (A431): 140 nM; GI50 (CHL): 1100 nM
2 | 43 | 1 | 6600 |  |  | 6 | 2 | C=CC(=O)Nc1cc(Nc2ncc(C)c(Nc3ccccc3S(=O)(=O)C(C)C)n2)c(OC)cc1N1CCN(CC)CC1 [Compound 84, N-(2-(4-ethylpiperazin-1-yl)-5-(4-(2-(isopropylsulfonyl)phenylamino)-5-methylpyrimidin-2-ylamino)-4-methoxyphenyl)acrylamide] | GI50 (BaF3-TEL-INSR): 4 nM; GI50 (BaF3-TEL-ALK-F1196M): 2 nM
1400 | 21 |  |  | 5700 | 1100 | 27 | 3200 | C=CC(=O)Nc1cccc(Oc2nc(Nc3ccc(N4CCN(C)CC4)cc3OC)ncc2Cl)c1 [WZ4002, reference compound] | GI50 (NCI-H3255): 390 nM; GI50 (HCC4006): 7.2 nM; GI50 (BaF3-TEL-EGFR-T790M): 46 nM; GI50 (HCC827): 1.2 nM; GI50 (BaF3-TEL-EGFR): 1600 nM; GI50 (NCI-H460): 8100 nM; effect on phosphorylation of EGFR protein and of STAT3, S6K, AKT, ERK, eIF4E [1]: behaved similarly

Reference: patent publication US10350210B2, “EGFR and ALK dual inhibitor” (PRECEDO PHARMACEUTICALS CO., LTD, priority 2015, dated 2019)
